Data: ChEMBL document CHEMBL1909046, “DrugMatrix in vitro pharmacology data”
pIC50: −log10 of the molar value.

Experiments:
[1] = biological target: T1, Type-2 angiotensin II receptor (Homo sapiens, UniProt P50052); test: biochemical; type: cell-based, CHO-K1; conditions: cho-k1
T1 sequence (P50052 whole entry): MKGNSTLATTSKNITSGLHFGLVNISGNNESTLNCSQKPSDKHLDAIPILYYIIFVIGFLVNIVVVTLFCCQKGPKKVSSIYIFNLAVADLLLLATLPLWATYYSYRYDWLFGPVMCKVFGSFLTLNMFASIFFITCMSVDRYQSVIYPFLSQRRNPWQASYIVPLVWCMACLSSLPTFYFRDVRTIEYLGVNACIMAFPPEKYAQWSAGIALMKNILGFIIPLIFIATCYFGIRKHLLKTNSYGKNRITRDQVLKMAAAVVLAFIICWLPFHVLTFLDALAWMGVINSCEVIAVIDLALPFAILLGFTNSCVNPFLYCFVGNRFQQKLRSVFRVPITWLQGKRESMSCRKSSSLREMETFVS

Calcitonin receptor = biological target: T2, Calcitonin receptor (Homo sapiens, UniProt P30988); type: cell membranes, Membrane; conditions: t47d
T2 sequence (P30988 whole entry): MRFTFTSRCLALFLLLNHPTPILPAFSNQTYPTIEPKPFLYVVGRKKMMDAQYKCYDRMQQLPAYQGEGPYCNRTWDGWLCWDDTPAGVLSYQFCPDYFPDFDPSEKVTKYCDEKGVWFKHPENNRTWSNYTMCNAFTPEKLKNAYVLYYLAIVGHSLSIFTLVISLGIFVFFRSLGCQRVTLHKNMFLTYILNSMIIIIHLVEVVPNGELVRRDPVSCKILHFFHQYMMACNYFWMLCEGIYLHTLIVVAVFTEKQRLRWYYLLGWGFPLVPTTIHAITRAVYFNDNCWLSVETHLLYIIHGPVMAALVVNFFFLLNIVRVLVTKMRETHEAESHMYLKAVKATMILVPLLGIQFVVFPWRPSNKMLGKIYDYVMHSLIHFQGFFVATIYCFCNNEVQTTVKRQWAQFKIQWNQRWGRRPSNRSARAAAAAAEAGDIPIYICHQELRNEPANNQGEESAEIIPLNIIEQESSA

[2] = biological target: Prostaglandin G/H synthase 1 (Homo sapiens, UniProt P23219); test: biochemical; type: tissue-based, Platelet; conditions: for IC50: platelet;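 for all read-outs here: inhibition of COX-1 enzyme activity, with arachidonic acid supplied as substrate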
Sequence of Prostaglandin G/H synthase 1 (P23219 whole entry): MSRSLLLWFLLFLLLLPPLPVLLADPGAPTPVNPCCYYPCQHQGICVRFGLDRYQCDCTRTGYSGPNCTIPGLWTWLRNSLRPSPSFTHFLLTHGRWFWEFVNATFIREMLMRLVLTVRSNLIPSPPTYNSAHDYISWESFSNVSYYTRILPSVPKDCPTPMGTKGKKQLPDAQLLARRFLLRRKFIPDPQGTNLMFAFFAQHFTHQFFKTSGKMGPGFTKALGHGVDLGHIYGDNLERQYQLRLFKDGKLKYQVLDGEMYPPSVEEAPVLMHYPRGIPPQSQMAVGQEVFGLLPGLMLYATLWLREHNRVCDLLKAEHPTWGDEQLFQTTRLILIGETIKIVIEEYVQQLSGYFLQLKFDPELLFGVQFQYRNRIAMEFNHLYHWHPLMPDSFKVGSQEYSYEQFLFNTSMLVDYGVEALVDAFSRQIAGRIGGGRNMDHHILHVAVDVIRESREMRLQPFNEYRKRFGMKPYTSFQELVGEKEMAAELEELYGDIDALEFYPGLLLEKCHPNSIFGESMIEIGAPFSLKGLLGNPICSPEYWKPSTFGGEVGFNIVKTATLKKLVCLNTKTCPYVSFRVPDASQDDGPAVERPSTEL

Glycine receptor = Glycine receptor (Rattus norvegicus, UniProt P22771+P24524+P07727+P20781); type: cell membranes, Wistar, Spinal cord, Membrane
Insulin receptor = Insulin receptor (Rattus norvegicus, UniProt P15127); type: cell membranes, Wistar, Liver, Membrane
Sequence of Insulin receptor (P15127 27-759 limits assumed): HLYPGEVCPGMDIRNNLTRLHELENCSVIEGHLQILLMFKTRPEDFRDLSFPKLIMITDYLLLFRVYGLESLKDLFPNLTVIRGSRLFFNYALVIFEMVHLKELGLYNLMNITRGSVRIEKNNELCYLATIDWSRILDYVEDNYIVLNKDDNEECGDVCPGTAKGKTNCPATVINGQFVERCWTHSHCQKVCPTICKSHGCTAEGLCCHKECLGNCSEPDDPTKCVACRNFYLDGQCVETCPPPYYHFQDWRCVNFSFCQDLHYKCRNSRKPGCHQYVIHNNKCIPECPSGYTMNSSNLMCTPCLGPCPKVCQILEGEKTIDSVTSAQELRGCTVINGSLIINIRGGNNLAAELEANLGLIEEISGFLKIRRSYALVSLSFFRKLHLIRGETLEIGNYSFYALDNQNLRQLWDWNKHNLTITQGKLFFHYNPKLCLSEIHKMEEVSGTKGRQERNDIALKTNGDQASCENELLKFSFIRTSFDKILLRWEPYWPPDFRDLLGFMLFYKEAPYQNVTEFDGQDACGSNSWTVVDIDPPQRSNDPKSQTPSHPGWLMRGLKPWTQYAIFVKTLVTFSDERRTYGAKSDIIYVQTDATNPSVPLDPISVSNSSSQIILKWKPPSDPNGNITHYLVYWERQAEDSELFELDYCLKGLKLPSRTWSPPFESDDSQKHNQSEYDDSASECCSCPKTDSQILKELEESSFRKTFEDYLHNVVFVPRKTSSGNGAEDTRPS
Sequence of Insulin receptor (P15127 764-1383 limits assumed): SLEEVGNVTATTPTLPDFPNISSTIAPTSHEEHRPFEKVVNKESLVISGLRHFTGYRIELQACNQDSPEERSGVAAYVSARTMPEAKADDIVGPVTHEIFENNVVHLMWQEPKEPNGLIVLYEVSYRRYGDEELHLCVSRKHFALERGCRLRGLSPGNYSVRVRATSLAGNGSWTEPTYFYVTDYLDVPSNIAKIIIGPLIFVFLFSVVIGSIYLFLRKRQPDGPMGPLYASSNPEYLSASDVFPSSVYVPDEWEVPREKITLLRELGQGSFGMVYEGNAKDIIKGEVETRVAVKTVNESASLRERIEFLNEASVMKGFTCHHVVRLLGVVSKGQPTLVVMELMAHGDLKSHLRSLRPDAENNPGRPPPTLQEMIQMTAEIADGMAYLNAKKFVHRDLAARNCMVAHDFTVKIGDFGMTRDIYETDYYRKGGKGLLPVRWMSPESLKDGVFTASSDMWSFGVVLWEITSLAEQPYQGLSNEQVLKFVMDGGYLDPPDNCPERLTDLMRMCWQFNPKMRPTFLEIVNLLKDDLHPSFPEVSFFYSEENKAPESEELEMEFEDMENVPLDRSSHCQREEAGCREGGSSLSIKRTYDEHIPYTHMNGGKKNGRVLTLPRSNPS

[3] = biological target: T3, Polyunsaturated fatty acid lipoxygenase ALOX15 (Oryctolagus cuniculus, UniProt P12530); test: biochemical; type: tissue-based, Reticulocytes; conditions: reticulocytes;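 note: inhibition of 15-lipoxygenase enzyme activity measured with linoleic acid as the substrate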
T3 sequence (P12530 whole entry): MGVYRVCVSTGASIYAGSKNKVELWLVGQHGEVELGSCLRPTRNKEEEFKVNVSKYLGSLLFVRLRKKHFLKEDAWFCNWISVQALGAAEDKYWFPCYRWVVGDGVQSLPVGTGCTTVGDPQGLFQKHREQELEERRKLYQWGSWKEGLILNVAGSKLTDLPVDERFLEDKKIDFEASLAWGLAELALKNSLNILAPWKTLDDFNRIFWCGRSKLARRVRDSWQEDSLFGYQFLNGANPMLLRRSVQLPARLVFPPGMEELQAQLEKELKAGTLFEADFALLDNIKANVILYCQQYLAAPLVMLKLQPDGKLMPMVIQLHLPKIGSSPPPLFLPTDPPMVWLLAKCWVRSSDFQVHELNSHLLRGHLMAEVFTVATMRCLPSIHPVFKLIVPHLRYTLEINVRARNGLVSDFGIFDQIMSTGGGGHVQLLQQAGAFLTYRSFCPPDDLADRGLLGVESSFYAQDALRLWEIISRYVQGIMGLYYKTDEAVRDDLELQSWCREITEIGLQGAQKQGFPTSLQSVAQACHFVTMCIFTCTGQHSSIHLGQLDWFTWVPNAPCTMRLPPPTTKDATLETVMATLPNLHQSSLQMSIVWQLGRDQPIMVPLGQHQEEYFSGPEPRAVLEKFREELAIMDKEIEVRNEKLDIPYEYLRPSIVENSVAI

[4] = biological target: Receptor tyrosine-protein kinase erbB-2 (Homo sapiens, UniProt P04626); test: biochemical; type: cell-based, Insect cells; conditions: insect cells;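 note: inhibition of HER2 kinase enzyme activity, measured with Poly(Glu:Tyr) as the phosphorylation substrate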
Sequence of Receptor tyrosine-protein kinase erbB-2 (P04626 whole entry): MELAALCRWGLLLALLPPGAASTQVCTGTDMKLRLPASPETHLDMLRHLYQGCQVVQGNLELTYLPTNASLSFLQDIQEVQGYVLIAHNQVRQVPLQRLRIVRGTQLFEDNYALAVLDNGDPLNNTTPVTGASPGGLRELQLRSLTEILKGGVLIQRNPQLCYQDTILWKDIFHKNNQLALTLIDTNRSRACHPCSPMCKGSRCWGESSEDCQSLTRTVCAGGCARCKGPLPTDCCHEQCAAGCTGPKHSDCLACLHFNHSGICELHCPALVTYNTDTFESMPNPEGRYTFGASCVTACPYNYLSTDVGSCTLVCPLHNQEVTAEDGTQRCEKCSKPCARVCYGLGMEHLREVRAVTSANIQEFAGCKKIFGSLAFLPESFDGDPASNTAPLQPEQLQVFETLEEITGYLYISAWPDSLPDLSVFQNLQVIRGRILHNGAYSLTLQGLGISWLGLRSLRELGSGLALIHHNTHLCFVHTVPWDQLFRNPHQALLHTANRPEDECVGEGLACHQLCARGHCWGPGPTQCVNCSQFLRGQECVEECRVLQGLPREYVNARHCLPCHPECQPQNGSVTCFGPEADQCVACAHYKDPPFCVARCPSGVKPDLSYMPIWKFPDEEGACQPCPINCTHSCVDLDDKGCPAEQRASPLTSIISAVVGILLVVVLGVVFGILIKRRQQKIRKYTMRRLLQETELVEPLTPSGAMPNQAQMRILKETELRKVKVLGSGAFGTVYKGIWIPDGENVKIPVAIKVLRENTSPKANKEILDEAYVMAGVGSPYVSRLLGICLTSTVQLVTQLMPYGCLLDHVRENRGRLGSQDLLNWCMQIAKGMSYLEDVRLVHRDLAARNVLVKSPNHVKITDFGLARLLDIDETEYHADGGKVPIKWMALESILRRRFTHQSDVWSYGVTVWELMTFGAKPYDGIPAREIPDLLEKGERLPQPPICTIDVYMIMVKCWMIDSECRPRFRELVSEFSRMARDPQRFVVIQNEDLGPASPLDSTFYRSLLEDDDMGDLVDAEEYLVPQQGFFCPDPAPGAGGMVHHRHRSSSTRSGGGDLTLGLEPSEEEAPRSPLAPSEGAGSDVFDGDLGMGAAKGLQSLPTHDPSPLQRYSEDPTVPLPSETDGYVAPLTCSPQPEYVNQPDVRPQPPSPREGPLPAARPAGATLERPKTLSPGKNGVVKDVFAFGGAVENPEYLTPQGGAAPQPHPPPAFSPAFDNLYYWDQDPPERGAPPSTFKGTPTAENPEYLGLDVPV

Cytochrome P450 2A6 = biological target: T4, Cytochrome P450 2A6 (Homo sapiens, UniProt P11509); conditions: bti-tn-5b1-4
T4 sequence (P11509 whole entry): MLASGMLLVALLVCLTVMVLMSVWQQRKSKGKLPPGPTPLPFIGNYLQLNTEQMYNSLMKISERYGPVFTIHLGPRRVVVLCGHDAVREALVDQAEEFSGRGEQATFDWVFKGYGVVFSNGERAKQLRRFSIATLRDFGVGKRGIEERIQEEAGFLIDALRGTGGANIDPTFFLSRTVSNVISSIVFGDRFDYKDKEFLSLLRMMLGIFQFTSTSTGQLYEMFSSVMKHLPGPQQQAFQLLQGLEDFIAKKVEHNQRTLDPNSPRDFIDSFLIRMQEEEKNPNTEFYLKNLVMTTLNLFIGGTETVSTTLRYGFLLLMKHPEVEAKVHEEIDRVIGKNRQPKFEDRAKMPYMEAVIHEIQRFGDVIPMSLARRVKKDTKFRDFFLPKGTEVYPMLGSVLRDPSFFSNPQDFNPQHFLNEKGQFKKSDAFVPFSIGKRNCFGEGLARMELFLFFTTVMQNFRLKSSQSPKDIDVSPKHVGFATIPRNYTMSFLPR
Note: in other assays of this panel Not Active means under 50% inhibition at 10 µM.

| Structure (SMILES) | IC50 [1] | IC50 (Calcitonin receptor) | IC50 [2] | IC50 (Glycine receptor) | IC50 (Insulin receptor) | IC50 [3] | IC50 [4] | IC50 (Cytochrome P450 2A6) | Ki (Cytochrome P450 2A6) | pIC50 ([2]; read-out: IC50) |
| --- | --- | --- | --- | --- | --- | --- | --- | --- | --- | --- |
| CCCCCCCCNC(C)C(O)c1ccc(SC(C)C)cc1 (stereo unspecified) [SULOCTIDIL] | Not Active | Not Active | Not Active | Not Active | Not Active | Not Active | Not Active | Not Active | Not Active |  |
| COC(=O)[C@H]1[C@H]2C[C@@H]3c4[nH]c5cc(OC)ccc5c4CCN3C[C@H]2C[C@@H](OC(=O)c2cc(OC)c(OC)c(OC)c2)[C@@H]1OC [RESERPINE] | Not Active | Not Active | Not Active | Not Active | Not Active | Not Active | Not Active | Not Active | Not Active |  |
| O=c1[nH]c(=O)n(C2CCCO2)cc1F (stereo unspecified) [TEGAFUR] | Not Active | Not Active | Not Active | Not Active | Not Active | Not Active | Not Active | Not Active | Not Active |  |
| CC(C)NC[C@H](O)COc1cccc2ccccc12 [LEVOPROPRANOLOL] | Not Active | Not Active | Not Active | Not Active | Not Active | Not Active | Not Active | Not Active | Not Active |  |
| CN1[C@@H]2CC[C@H]1C[C@@H](OC(c1ccccc1)c1ccccc1)C2 [BENZTROPINE] | Not Active | Not Active | Not Active | Not Active | Not Active | Not Active | Not Active | Not Active | Not Active |  |
| Cc1ccc(C(=O)c2ccc(CC(=O)O)n2C)cc1 [TOLMETIN] | Not Active | Not Active |  | Not Active | Not Active | Not Active | Not Active | Not Active | Not Active | 7.39 |
| C[S+]([O-])c1ccc(-c2nc(-c3ccncc3)c(-c3ccc(F)cc3)[nH]2)cc1 (stereo unspecified) [SB-203580] | Not Active | Not Active | Not Active | Not Active | Not Active | Not Active |  | Not Active | Not Active |  |
| CN1CCN(C2=Nc3cc(Cl)ccc3Nc3ccccc32)CC1 [CLOZAPINE] | Not Active | Not Active | Not Active | Not Active | Not Active | Not Active | Not Active | Not Active | Not Active |  |
| C[C@]12C=CC(=O)C=C1CC[C@@H]1[C@@H]2C(=O)C[C@@]2(C)[C@H]1CC[C@]2(O)C(=O)CO [PREDNISONE] | Not Active | Not Active | Not Active | Not Active | Not Active | Not Active | Not Active |  |  |  |
| CC(C)NC[C@@H](O)COc1cccc2ccccc12 [DEXPROPRANOLOL] | Not Active | Not Active | Not Active | Not Active | Not Active | Not Active | Not Active | Not Active | Not Active |  |
| CN1CCN(CCCN2c3ccccc3Sc3ccc(C(F)(F)F)cc32)CC1 [TRIFLUOPERAZINE] | Not Active | Not Active | Not Active | Not Active | Not Active | Not Active | Not Active | Not Active | Not Active |  |
